Laboratory results reported in patent US12152060B2, “Interleukin-2 variants and methods of uses thereof” (Cugene Inc, priority 2018, dated 2024).

Columns and labels:
[1] = test system: STAT5 phosphorylation in CD4+ Treg cells (CD4+/Foxp3+/CD25high); test: STAT5 phosphorylation in CD4+ Treg cells, human PBMC assay by FACS; type: cell-based; conditions: pSTAT5, Treg versus Tconv
Description: Single amino acid substitutions were introduced to IL-2 at positions corresponding to amino acids interacting with receptor subunit(s) β or γ or By. These substitutions were aimed to reduce IL-2 signaling capacity through the intermediate affinity IL-2Rβγ complex and confer signaling specificity from the high affinity IL-2Rαβγ. IL-2 variants containing single amino acid substitutions were examined for their ability to differentially stimulate STAT5 phosphorylation in CD4 positive Treg and Tconv cells. STAT5 is known to be involved in the downstream signaling cascade upon IL-2 binding to the transmembrane IL-2 receptors. The phosphorylation of STAT5 in defined lymphocyte subpopulations was measured using fresh human peripheral blood mononuclear cells (PBMC) and the forkhead transcription factor FOXP3 was used to identify the Treg population in FACS analysis.
Briefly, human PBMC were isolated by Ficoll-Hypaque centrifugation from the buffy coat of a healthy donor. PBMC were starved in serum-free MACS buffer at 4° C. for 1 hour. 2×10^5 PBMC were then treated with serial dilutions of test compounds for 30 min at 37° C. Cells were fixed and permeabilized with Foxp3/Transcription Factor Staining Buffer Set (EBIO) by incubating with 1× Foxp3 fixation/permeabilization working solution for 30 minutes and washing with 1× permeabilization buffer. Cells were additionally fixed with Cytofix buffer and permeabilized with Perm Buffer III (BD Biosciences) and then washed. After blocking Fc receptors by adding human TruStain™ FcX (1:50 dilution), cells were stained with a mixture of anti-CD25-PE, anti-FOXP3-APC, anti-pSTAT5-FITC, and anti-CD4-PerCP-Cy5.5 antibodies at concentrations recommended by the manufacturer for 45 minutes at room temperature. Cells were collected by centrifugation, washed, resuspended in FACS buffer, and analyzed by flow cytometry. The flow cytometry data was gated into CD4+/Foxp3+/CD25^high and CD4+/Foxp3−/CD25^low groups for the Treg and CD4 conventional T cell subsets, respectively. Data are expressed as a percent of pStat5 positive cells in gated population.

[2] = target: T1, non-covalent complex of IL-2Rβ-ECD (NP_000869) and γc-ECD (NP_000197) (Homo sapiens, UniProt P14784+P31785); test: ELISA binding to IL-2Rβ and γc complex
T1 construct: non-covalent complex of IL-2Rβ-ECD (NP_000869) and γc-ECD (NP_000197)
T1 sequence (P14784 27-240 limits assumed): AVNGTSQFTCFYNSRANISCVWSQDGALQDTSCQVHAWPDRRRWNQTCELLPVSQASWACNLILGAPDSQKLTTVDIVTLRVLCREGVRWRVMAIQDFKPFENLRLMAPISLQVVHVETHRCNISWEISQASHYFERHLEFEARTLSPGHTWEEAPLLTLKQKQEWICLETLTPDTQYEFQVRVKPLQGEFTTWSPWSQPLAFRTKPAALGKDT
T1 sequence (P31785 23-262 limits assumed): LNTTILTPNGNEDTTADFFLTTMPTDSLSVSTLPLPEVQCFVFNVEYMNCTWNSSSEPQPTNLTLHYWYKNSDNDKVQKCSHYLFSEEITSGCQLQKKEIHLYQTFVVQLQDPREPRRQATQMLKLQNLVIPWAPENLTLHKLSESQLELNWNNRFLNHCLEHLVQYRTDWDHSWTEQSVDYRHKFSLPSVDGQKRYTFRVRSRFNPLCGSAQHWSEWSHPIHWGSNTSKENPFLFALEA
Method: Briefly, non-covalent complex of IL-2Rβ-ECD (NP_000869) and γc-ECD (NP_000197) through heterodimeric Fc chains was coated onto the wells of Nunc Maxisorp 96-well microplates at 2 μg/well. After overnight incubation at 4° C. and blocking with superblock (ThermoFisher), 3-fold serial dilutions of IL-2 Fc fusion proteins starting at either 100 or 270 nM were added to each well at 100 μl/well. Following a one-hour incubation at room temperature, biotin mouse anti-human IL-2 Ab (BD BioSciences) at 1 μg/ml was added to each well followed by incubation with HRP-Avidin (ThermoFisher) at 1 μg/ml for 1 hour. Wells were thoroughly aspirated and washed three times with PBS/0.05% Tween-20 following each step. Finally, 100 μl TMB substrate was added to each well; the plate was developed at room temperature in the dark for 10 minutes, and 100 μl/well of stop solution (2N Sulfuric acid, Ricca Chemical) was added. Absorbance was determined at 450 nm; curves were fit using Prism software (GraphPad) and illustrated in FIG. 11E.

EC50, binding to IL-2Rβ and γc complex (ELISA) [2]: did not show appreciable binding
Substance: P-0511: Fc fusion protein of IL-2 variant L19H/S125I/Q126E; SEQ ID NO: 198
window for selective activation of Treg cells over CD4+ Tconv cells (in words) [1]: further widened the Treg selectivity window
